Consider 4 compounds from patent US20050019825A9, “Common ligand mimics: pseudothiohydantoins” (priority 2002, published 2005).

Usually IC50 stands for the point on the concentration scale where inhibition reaches its midpoint. A higher IC50 goes with a need for much substance. A word on the inhibition: it is how much of the control response was suppressed.

Bounds are passed on as bounds.

Test [1] concerns the target T1, alcohol dehydrogenase (ADH) (Saccharomyces cerevisiae, UniProt P00330).
T1 construct: 10 μl of ADH from Bakers Yeast; host or cells: bakers yeast
T1 sequence (P00330 1-348): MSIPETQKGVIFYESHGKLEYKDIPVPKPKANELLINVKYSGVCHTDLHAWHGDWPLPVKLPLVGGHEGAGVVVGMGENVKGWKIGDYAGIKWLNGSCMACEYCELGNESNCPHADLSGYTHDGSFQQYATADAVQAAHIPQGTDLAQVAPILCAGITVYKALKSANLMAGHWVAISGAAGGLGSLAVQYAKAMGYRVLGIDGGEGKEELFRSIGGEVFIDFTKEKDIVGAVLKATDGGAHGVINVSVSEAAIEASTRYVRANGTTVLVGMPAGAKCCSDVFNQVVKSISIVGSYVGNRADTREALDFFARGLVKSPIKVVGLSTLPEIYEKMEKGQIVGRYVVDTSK
In words: ADH kinetic assay, spectrophotometric reduction of NAD+ (340 nm). Format: biochemical, Bakers Yeast. The protocol: For ADH analysis, the compounds were screened using a kinetic protocol that spectrophotometrically evaluates reduction of NAD+.
Stock solutions of each of the reagents were prepared in the following concentrations. Dilutions of the stock solutions were prepared prior to running the assay in the concentrations indicated below.
The ADH reaction was monitored at 340 nm prior to and after addition of the inhibitor to detect background reaction with the inhibitor. Solutions of 100 μl of the inhibitors in DMSO were prepared to provide a final DMSO concentration of 5% of the total assay volume. These solutions were incubated for 6 minutes at 25° C. in a 990 μl of a solution containing 0.1 M HEPES, pH 8.0, 80 μM NAD+, and 130 mM of ethanol. The reaction was then initiated with 10 μl of ADH from Bakers Yeast ([…]; 1:400 dilution of 1.0 mg/ml). After the enzyme was added, the solution was mixed for 20 seconds, and the reaction was run for 10 minutes. After a 50 second lag, the samples were read in a Cary spectrophotometer at 340 nm. Reading of the samples was continued until 300 seconds. […] The substrate was kept at a level at least 10 times the Km. The final concentration of […] was about 2.5 mM.
Where only a simple read was desired, as in the case of NAD+ concentration determination, 13 μl (10 M stock) of ethanol was used to drive the reaction, and 10 μl of pure enzyme (1 mg/ml) was used. NAD+ was soluble at 2 mM, which allowed the concentration determination step to be skipped. In this situation, the procedure was as follows. All of the ingredients except for the enzyme were mixed together. The solution was mixed well and the absorbance at 340 nm read. The enzyme was added and read again at OD 340 after the absorbance stopped changing, generally 10 to 15 minutes after the enzyme was added.

In test [2] the target is dihydrodipicolinate reductase (DHPR) (Escherichia coli, UniProt P04036). In words: Screening of bi-ligands for DHPR (Example 25), kinetic assay at 340 nm. Format: biochemical. To be noted: Cibacron Blue at 2.58 μM, Example 25; read-out: inhibition of DHPR, positive control. The protocol: Screening of Biligands for Binding to Dihydrodipicolinate Reductase (DHPR)
Chain of dihydrodipicolinate reductase (DHPR) (P04036 whole entry): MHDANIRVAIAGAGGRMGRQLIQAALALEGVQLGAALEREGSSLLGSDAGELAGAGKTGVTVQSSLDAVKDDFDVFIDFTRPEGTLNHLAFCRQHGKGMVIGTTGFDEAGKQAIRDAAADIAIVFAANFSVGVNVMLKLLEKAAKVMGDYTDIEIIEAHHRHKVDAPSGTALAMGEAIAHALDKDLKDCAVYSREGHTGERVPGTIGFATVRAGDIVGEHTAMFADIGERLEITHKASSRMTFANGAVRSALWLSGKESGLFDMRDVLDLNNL
This example describes the screening of bi-ligands having common ligand mimics for binding activity to dihydrodipicolinate reductase (DHPR).
Bi-ligands were produced by the methods of Examples 16 to 18. The bi-ligands were screened for binding to DHPR.
Stock solutions of each of the reagents were prepared in the following concentrations. Dilutions of the stock solutions were prepared prior to running the assay in the concentrations indicated below. Dilution of DHPR was prepared in 10 mM HEPES at a pH of 7.4. DHPS was not diluted and was stored in eppindorf tubes.
The L-ASA solution was prepared in the following manner. 180 μM stock solution of ASA was prepared. 100 μl of the ASA stock was mixed with 150 μl of concentrated NaHCO3 and 375 μl of […]. For use in the assay, 28.8 mM L-ASA equal 625 μl of the solution. The L-ASA stock solution was kept at a temperature of −20° C. After dilution, the pH of the 28.8 mM solution was checked and maintained between 1 and 2.
First, the DHPS reaction was monitored at 340 nm prior to and after addition of the inhibitor to detect background reaction with the inhibitor. The solution for background detection was a 945 μl solution containing 0.1 HEPES (pH 7.8), 1 mM pyruvate, 6 μM NADPH, 40 μM L-ASA, and 7 μl of 1 mg/ml DHPS at 25° C. in the volumes provided above. The sample solution was then mixed and incubated for 10 minutes. Next, 500 nM solutions of the inhibitors and enough DMSO to provide a final DMSO concentration of 5% were added. The solution was mixed and incubated for an additional 6 minutes.
In DHPR samples, 5 μl of the diluted DHPR enzyme were added. The sample was mixed for 20 seconds and then the reaction was run for 10 minutes. After a 50 second lag, the samples were read in a Cary spectrophotometer at 340 nm. Reading of the samples was continued until 300 seconds. Cuvette #1 contained the control reaction (no inhibitor), and cuvette #2 contained the positive control reaction in which Cibacron Blue at 2.58 μM was substituted for inhibitor to yield 70 to 80% inhibition. The substrate and NADPH or NAHD were kept near their Km values.

Turning to `N=C1NC(=O)C(=Cc2ccc(C(=O)O)cc2)S1` [4-(2-imino-4-oxo-thiazolidin-5-ylidenemethyl)-benzoic acid], in test [1], the IC50 is over 100 µM. Further, in test [1] (Example 24 (FIG. 6)), the “inhibition of ADH (in words)” value is on record as “no inhibition”.

In test [1], `COc1cc(C=C2SC(N)=NC2=O)ccc1O` [5-(4-hydroxy-3-methoxy-benzylidene)-2-imino-thiazolidin-4-one] yielded an IC50 of over 100 µM.

In test [1], `N=C1NC(=O)C(=Cc2ccc(O)c([N+](=O)[O-])c2)S1` [5-(4-hydroxy-3-nitro-benzylidene)-2-imino-thiazolidin-4-one] had a 50% inhibitory concentration (IC50) of over 150 µM.

Turning to `Nc1c(S(=O)(=O)O)cc(Nc2ccc(Nc3nc(Cl)nc(Nc4ccccc4S(=O)(=O)O)n3)c(S(=O)(=O)O)c2)c2c1C(=O)c1ccccc1C2=O` [Cibacron Blue, reference compound], the inhibition at 2.58 µM in test [2] lay within 70 to 80%. Further, the inhibition at 15.5 µM in test [1] (Cibacron Blue at 15.5 μM, read-out: inhibition of ADH, positive control) fell in the range of 50 to 60%.
